≈ marks a conversion by molar mass, not a printed value.
Assays:
[1] = target: IRAK4 (Homo sapiens (Human), UniProt Q9NWZ3); test: IRAK4 2-hour 1 mM ATP Biochemical Assay (MesoScale Detection format); conditions: 100 pM IRAK4, read-out: IRAK4 IC50
Description: The 2-hour 1 mM ATP Biochemical Assay employed a MesoScale Detection (MSD) format.
The activity was quenched with 11 μl of 70 mM EDTA, pH 8.
To detect the phosphorylated biotinylated peptide substrate, 30 μl of the quenched reaction mixture was added to equivalent wells of a 384 well streptavidin coated MesoScale plate (Meso Scale Discovery #L21SA-1). After a 1 hour incubation of the plate for 1 hour at room temperature with gentle mixing, the plate wells were washed 3 times with 50 mM Tris, pH 7.5, 150 mM NaCl, 0.02% Tween-20.
A 25 μl volume of 1:500 anti-P-Threonine Rabbit polyclonal Antibody plus 1:500 Goat-anti-Rabbit Sulfo Tag Antibody (Meso Scale Discovery R^32AB-1) in 50 mM Tris, pH 7.5, 150 mM NaCl, 0.02% Tween-20 plus 2% BSA was then added to each well. After a 1-hour incubation of the plate for 1 hour at room temperature with gentle mixing, the plate wells were washed, 3 times with 50 mM Tris, pH 7.5, 150 mM NaCl, 0.02% Tween-20.

[2] = target: MDR1 (Homo sapiens (Human), UniProt P08183); test: MDR1-MDCK assay (apparent permeability, efflux ratio); format: in vitro ADME; conditions: human, MDCK-MDR1, 1 μM, read-out: MDR1-MDCK_Efflux Ratio
[3] = Kinetic solubility assay (CLND), potassium phosphate buffer pH 6.8; format: physicochemical; conditions: potassium phosphate buffer, pH 6.8, aqueous buffer, kinetic from dmso stock, pH 6.8, 2% DMSO, 24 hours at ambient temperature
Excerpt: • Inject filtrates into the nitrogen detector for quantification on Analiza's Automated Discovery Workstation (ADW). • Solubility results generated in μg/mL

Chain of MDR1 (P08183 whole entry): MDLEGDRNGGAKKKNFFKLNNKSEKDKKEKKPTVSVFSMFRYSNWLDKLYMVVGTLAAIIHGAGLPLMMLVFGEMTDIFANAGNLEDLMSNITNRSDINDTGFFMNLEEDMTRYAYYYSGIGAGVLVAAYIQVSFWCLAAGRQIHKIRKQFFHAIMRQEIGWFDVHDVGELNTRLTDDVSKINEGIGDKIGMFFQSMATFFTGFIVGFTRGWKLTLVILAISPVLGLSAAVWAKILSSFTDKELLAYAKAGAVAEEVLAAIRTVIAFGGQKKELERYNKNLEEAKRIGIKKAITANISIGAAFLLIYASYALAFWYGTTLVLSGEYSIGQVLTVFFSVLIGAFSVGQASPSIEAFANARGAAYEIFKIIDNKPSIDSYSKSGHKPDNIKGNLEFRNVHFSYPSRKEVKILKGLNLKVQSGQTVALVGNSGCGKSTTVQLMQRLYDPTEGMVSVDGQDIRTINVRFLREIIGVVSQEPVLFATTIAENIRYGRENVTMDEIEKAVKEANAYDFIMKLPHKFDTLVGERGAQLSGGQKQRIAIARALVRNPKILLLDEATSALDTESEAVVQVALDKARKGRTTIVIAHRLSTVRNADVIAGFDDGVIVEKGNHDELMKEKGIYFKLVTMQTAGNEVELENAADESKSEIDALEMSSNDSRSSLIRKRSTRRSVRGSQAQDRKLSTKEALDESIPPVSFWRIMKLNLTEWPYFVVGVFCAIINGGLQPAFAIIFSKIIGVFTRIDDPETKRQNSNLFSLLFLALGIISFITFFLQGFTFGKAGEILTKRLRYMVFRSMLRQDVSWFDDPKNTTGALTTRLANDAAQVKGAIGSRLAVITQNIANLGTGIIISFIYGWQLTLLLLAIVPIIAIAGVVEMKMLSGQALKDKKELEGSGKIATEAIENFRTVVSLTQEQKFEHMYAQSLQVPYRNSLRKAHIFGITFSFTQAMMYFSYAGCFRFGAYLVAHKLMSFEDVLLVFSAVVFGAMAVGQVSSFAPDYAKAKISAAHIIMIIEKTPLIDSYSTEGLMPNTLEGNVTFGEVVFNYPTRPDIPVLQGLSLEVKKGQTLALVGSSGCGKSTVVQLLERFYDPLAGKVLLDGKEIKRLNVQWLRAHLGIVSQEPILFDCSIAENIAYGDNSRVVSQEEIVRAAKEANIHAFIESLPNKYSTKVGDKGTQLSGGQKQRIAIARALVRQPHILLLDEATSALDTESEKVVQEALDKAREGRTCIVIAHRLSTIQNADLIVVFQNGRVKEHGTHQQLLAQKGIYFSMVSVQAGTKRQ
Chain of IRAK4 (Q9NWZ3 whole entry): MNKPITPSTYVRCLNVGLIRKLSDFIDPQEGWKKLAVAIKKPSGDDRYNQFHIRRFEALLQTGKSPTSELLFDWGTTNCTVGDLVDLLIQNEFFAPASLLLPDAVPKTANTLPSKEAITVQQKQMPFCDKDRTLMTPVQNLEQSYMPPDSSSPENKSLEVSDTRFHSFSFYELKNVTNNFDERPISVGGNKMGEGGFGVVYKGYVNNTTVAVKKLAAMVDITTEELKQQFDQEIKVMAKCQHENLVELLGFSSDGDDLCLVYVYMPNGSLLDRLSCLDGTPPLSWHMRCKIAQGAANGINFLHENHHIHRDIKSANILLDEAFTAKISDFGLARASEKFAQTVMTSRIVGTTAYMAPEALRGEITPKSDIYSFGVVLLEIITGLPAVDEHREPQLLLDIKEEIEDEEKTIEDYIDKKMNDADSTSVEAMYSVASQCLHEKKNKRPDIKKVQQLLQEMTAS

Row | SMILES | IC50 [1] [nM] | efflux ratio at 120 min, 1 μM [2] | solubility at 24 h [3] [µg/mL]
1 | CC(C)Oc1nc2nn(C34COC(CF)(C3)C4)cc2cc1C(=O)Nc1cccn(C2(C)CC2)c1=O [Example 19, 2-(1-(Fluoromethyl)-2-oxabicyclo[2.1.1]hexan-4-yl)-6-isopropoxy-N-(1-(1-methylcyclopropyl)-2-oxo-1,2-dihydropyridin-3-yl)-2H-pyrazolo[3,4-b]pyridine-5-carboxamide] | 6.6 | 1.91 | –
2 | COCC12CC(n3cc4cc(C(=O)Nc5cccn([C@@H]6C[C@@H]6C)c5=O)c(OC(C)C)nc4n3)(CO1)C2 [Example 72, 6-isopropoxy-2-(1-(methoxymethyl)-2-oxabicyclo[2.1.1]hexan-4-yl)-N-(1-((1R,2S)-2-methylcyclopropyl)-2-oxo-1,2-dihydropyridin-3-yl)-2H-pyrazolo[3,4-b]pyridine-5-carboxamide] | 27.4 | 2.69 | –
3 | CC(C)Oc1nc2nn(C34COC(C)(C3)C4)cc2cc1C(=O)Nc1cccn([C@H]2CC2(C)C)c1=O [Example 23, (S)—N-(1-(2,2-dimethylcyclopropyl)-2-oxo-1,2-dihydropyridin-3-yl)-6-isopropoxy-2-(1-methyl-2-oxabicyclo[2.1.1]hexan-4-yl)-2H-pyrazolo[3,4-b]pyridine-5-carboxamide] | 1.3 | 1.15 | –
4 | CC(C)Oc1cc2nn(C34COC(C)(C3)C4)cc2cc1C(=O)Nc1cccn([C@@H]2C[C@@H]2F)c1=O (racemic) [Example 35, (racemic)-Cis-N-(1-(2-fluorocyclopropyl)-2-oxo-1,2-dihydropyridin-3-yl)-6-isopropoxy-2-(1-methyl-2-oxabicyclo[2.1.1]hexan-4-yl)-2H-indazole-5-carboxamide] | – | – | 65.7 (≈ 141 µM)
5 | CC(C)Oc1nc2nn(C34COC(C)(C3)C4)cc2cc1C(=O)Nc1cccn([C@H]2C[C@@H]2F)c1=O (single isomer, unassigned) [Example 43] | – | 1.82 | 1.8 (≈ 3.85 µM)
6 | CC(C)Oc1nc2nn(C34COC(C)(C3)C4)cc2cc1C(=O)Nc1cccn([C@@H]2C[C@@H]2F)c1=O (single isomer, unassigned) [Example 33] | – | 4.15 | 6.6 (≈ 14.1 µM)
7 | CC(C)Oc1cc2nn(C34COC(C)(C3)C4)cc2cc1C(=O)Nc1cccn([C@@H]2C[C@@H]2F)c1=O (single isomer, unassigned) [Example 36] | – | 2.96 | 69.5 (≈ 149 µM)
8 | COCC12CC(n3cc4cc(C(=O)Nc5cccn([C@@H]6C[C@@H]6C)c5=O)c(OC(C)C)cc4n3)(CO1)C2 [Example 73, 6-isopropoxy-2-(1-(methoxymethyl)-2-oxabicyclo[2.1.1]hexan-4-yl)-N-(1-((1R,2S)-2-methylcyclopropyl)-2-oxo-1,2-dihydropyridin-3-yl)-2H-indazole-5-carboxamide] | 43.2 | 1.51 | –
9 | CC(C)Oc1nc2nn(C34COC(C)(C3)C4)cc2cc1C(=O)Nc1cccn([C@H]2C[C@H]2F)c1=O [Example 84, N-(1-((1S,2R)-2-fluorocyclopropyl)-2-oxo-1,2-dihydropyridin-3-yl)-6-isopropoxy-2-(1-methyl-2-oxabicyclo[2.1.1]hexan-4-yl)-2H-pyrazolo[3,4-b]pyridine-5-carboxamide] | – | 3.06 | 15.8 (≈ 33.8 µM)
10 | CC(C)Oc1nc2nn(C34COC(C)(C3)C4)cc2cc1C(=O)Nc1cccn([C@@H]2C[C@@H]2F)c1=O [Example 83, N-(1-((1R,2S)-2-fluorocyclopropyl)-2-oxo-1,2-dihydropyridin-3-yl)-6-isopropoxy-2-(1-methyl-2-oxabicyclo[2.1.1]hexan-4-yl)-2H-pyrazolo[3,4-b]pyridine-5-carboxamide] | – | 4.48 | 16.7 (≈ 35.7 µM)
11 | CC(C)Oc1nc2nn(C34COC(C)(C3)C4)cc2cc1C(=O)Nc1cccn([C@@H]2C[C@@H]2F)c1=O (racemic) [Example 32, (rac)-Cis-N-(1-(2-fluorocyclopropyl)-2-oxo-1,2-dihydropyridin-3-yl)-6-isopropoxy-2-(1-methyl-2-oxabicyclo[2.1.1]hexan-4-yl)-2H-pyrazolo[3,4-b]pyridine-5-carboxamide] | – | 4.18 | 16 (≈ 34.2 µM)
12 | CC(C)Oc1cc2nn(C34COC(CF)(C3)C4)cc2cc1C(=O)Nc1cccn([C@@H]2C[C@@H]2F)c1=O [Example 53, N-(1-((1R,2S)-2-fluorocyclopropyl)-2-oxo-1,2-dihydropyridin-3-yl)-2-(1-(fluoromethyl)-2-oxabicyclo[2.1.1]hexan-4-yl)-6-isopropoxy-2H-indazole-5-carboxamide] | 9 | 6.21 | –
13 | CC(C)Oc1cc2nn(C34COC(C)(C3)C4)cc2cc1C(=O)Nc1cccn([C@H]2C[C@H]2F)c1=O (single isomer, unassigned) [Example 37] | – | 2.71 | 56 (≈ 120 µM)
14 | CC(C)Oc1cc2nn(C34COC(C)(C3)C4)cc2cc1C(=O)Nc1cccn([C@@H]2C[C@H]2F)c1=O (single isomer, unassigned) [Example 54] | – | 1.77 | 66.5 (≈ 143 µM)
15 | CC(C)Oc1cc2nn(C34COC(CF)(C3)C4)cc2cc1C(=O)Nc1cccn([C@H]2C[C@@H]2C)c1=O (single isomer, unassigned) [Example 70] | 2.3 | 1.59 | –
16 | CC(C)Oc1cc2nn(C34COC(C)(C3)C4)cc2cc1C(=O)Nc1cccn([C@@H]2C[C@H]2C)c1=O (racemic) [Example 39, Racemic-(Trans)-6-isopropoxy-2-(1-methyl-2-oxabicyclo[2.1.1]hexan-4-yl)-N-(1-(2-methylcyclopropyl)-2-oxo-1,2-dihydropyridin-3-yl)-2H-indazole-5-carboxamide] | – | – | 2.3 (≈ 4.97 µM)
17 | COCC12CC(n3cc4cc(C(=O)Nc5cccn([C@@H]6C[C@H]6F)c5=O)c(OC5CCC5)cc4n3)(CO1)C2 [Example 57, 6-cyclobutoxy-N-(1-((1R,2R)-2-fluorocyclopropyl)-2-oxo-1,2-dihydropyridin-3-yl)-2-(1-(methoxymethyl)-2-oxabicyclo[2.1.1]hexan-4-yl)-2H-indazole-5-carboxamide] | 1.7 | 2.39 | –
18 | CC[C@@H](C)Oc1nc2nn(C34COC(CF)(C3)C4)cc2cc1C(=O)Nc1cccn(C2CC2)c1=O [Example 20, (R)-6-(sec-butoxy)-N-(1-cyclopropyl-2-oxo-1,2-dihydropyridin-3-yl)-2-(1-(fluoromethyl)-2-oxabicyclo[2.1.1]hexan-4-yl)-2H-pyrazolo[3,4-b]pyridine-5-carboxamide] | 4 | 2.26 | –
19 | CC(C)Oc1nc2nn(C34COC(C)(C3)C4)cc2cc1C(=O)Nc1cccn([C@@H]2CC2(C)C)c1=O [Example 22, (R)—N-(1-(2,2-dimethylcyclopropyl)-2-oxo-1,2-dihydropyridin-3-yl)-6-isopropoxy-2-(1-methyl-2-oxabicyclo[2.1.1]hexan-4-yl)-2H-pyrazolo[3,4-b]pyridine-5-carboxamide] | 27 | 1.03 | –
20 | CC(C)Oc1nc2nn(C34COC(C)(C3)C4)cc2cc1C(=O)Nc1cccn(C2C[C@@H]2F)c1=O (mixture of isomers) [Example 42, racemic-(Trans)-N-(1-(2-fluorocyclopropyl)-2-oxo-1,2-dihydropyridin-3-yl)-6-isopropoxy-2-(1-methyl-2-oxabicyclo[2.1.1]hexan-4-yl)-2H-pyrazolo[3,4-b]pyridine-5-carboxamide] | – | 2.5 | 2.8 (≈ 5.99 µM)
21 | CC[C@H](C)Oc1nc2nn(C34COC(CF)(C3)C4)cc2cc1C(=O)Nc1cccn(C2CC2)c1=O [Example 21, (S)-6-(sec-butoxy)-N-(1-cyclopropyl-2-oxo-1,2-dihydropyridin-3-yl)-2-(1-(fluoromethyl)-2-oxabicyclo[2.1.1]hexan-4-yl)-2H-pyrazolo[3,4-b]pyridine-5-carboxamide] | 1.1 | 3.33 | –
22 | CC(C)Oc1nc2nn(C34COC(C)(C3)C4)cc2cc1C(=O)Nc1cccn(C2(C)CC2)c1=O [Example 18, 6-Isopropoxy-2-(1-methyl-2-oxabicyclo[2.1.1]hexan-4-yl)-N-(1-(1-methylcyclopropyl)-2-oxo-1,2-dihydropyridin-3-yl)-2H-pyrazolo[3,4-b]pyridine-5-carboxamide] | 4.3 | 1.31 | –
23 | CC(C)Oc1nc2nn(C34COC(C3)C4)cc2cc1C(=O)Nc1cccn([C@@H]2C[C@@H]2C)c1=O [Example 75, 2-(2-oxabicyclo[2.1.1]hexan-4-yl)-6-isopropoxy-N-(1-((1R,2S)-2-methylcyclopropyl)-2-oxo-1,2-dihydropyridin-3-yl)-2H-pyrazolo[3,4-b]pyridine-5-carboxamide] | 36.9 | 3.63 | –
24 | CC(C)Oc1cc2nn(C34COC(C)(C3)C4)cc2cc1C(=O)Nc1cccn([C@H]2C[C@H]2C)c1=O [Example 96, 6-isopropoxy-2-(1-methyl-2-oxabicyclo[2.1.1]hexan-4-yl)-N-(1-((1S,2R)-2-methylcyclopropyl)-2-oxo-1,2-dihydropyridin-3-yl)-2H-indazole-5-carboxamide] | – | – | 13.6 (≈ 29.4 µM)
25 | CC(C)Oc1cc2nn(C34COC(C3)C4)cc2cc1C(=O)Nc1cccn([C@@H]2C[C@@H]2C)c1=O [Example 74, 2-(2-oxabicyclo[2.1.1]hexan-4-yl)-6-isopropoxy-N-(1-((1R,2S)-2-methylcyclopropyl)-2-oxo-1,2-dihydropyridin-3-yl)-2H-indazole-5-carboxamide] | 26.5 | 2.07 | –
26 | CC(C)Oc1nc2nn(C34COC(C)(C3)C4)cc2cc1C(=O)Nc1cccn([C@@H]2C[C@H]2F)c1=O (single isomer, unassigned) [Example 44] | – | 1.84 | 1.9 (≈ 4.06 µM)

— patent US20250268877A1 (BIOGEN MA INC., priority 2020, published 2025)
